Experimental data reported in patent US20180043017A1, “PHARMACEUTICAL COMPOSITIONS COMPRISING 0.5 MG DOSE OF SYNTHETIC HUMAN PEPTIDES FOR TREATING SYSTEMIC LUPUS ERYTHEMATOSUS” (XTL Biopharmaceuticals Ltd., priority 2016, published 2018).
Like-named read-outs stand apart in the source and are kept apart here.

Tests used:
SLE patients [1] = conditions: cited from earlier work
[2] = test system: peripheral blood lymphocytes (PBL) of SLE patients; conditions: cited from earlier work
SLE patients [3] = assay: PRELUDE phase 2 study, three doses of subcutaneously injected Edratide, 26 weeks; conditions: for AE incidence: placebo 79.3%; for early withdrawal due to AE: placebo 2.3%
Description: (§1) The PRELUDE Study was a phase 2, multinational, multicenter, randomized, double-blind, placebo-controlled, multiple-dose, parallel group study to assess the efficacy, tolerability and safety of three doses of subcutaneously injected Edratide in SLE patients.
(§2) The total study treatment duration was 26 weeks. Scheduled visits were performed at screening, baseline and at weeks 4, 8, 12, 16, 20, 24, and 26 (termination). […] Non-compliance with the tapering down scheme was not regarded as a protocol violation. During the entire course of the study it was allowed to increase the steroid prednisolone dose to up to 60 mg. Use of intravascular/intramuscular steroid was considered a protocol violation. […] Edratide and CAPTISOL® pharmacokinetic (PK) profiles were characterized in a small group of patients. PK assessment of CAPTISOL® for all four treatment groups was conducted following the first dose and Weeks 12 and 26 doses. Disease and drug related immunology parameters were tested at baseline and at several time points thereafter.
(§3) The co-primary end-points presented in their hierarchical order below were: • Change from baseline to last observed value (LOV) in SLEDAI 2K score (Landmark Analysis.) • Adjusted Mean SLEDAI 2K (AMS). AMS represents the time weighted average of disease activity as measured by SLEDAI 2K score [area under the curve (AUC) of SLEDAI 2K].
(§4) Secondary End-Points: • BILAG proportion of responders. BILAG responders were defined as: • a. Non Responder (NR)—same BILAG score in Last Observed Value (LOV) as in baseline in all systems or new A or B in at least one system compared to baseline (other systems may improve or deteriorate). • b. […] Change from baseline to LOV • SF-36 (QoL) Physical component Score—Change from Baseline to LOV • Time Weighted Average (TWA) on cumulative steroids dose with p.o. administration.
(§5) Exploratory End-Points: • Primary end-point sensitivity analysis to steroid increase (excluding the observations following steroid increase) • Proportions of Zero SLEDAI Score at LOV • Time to Zero SLEDAI Score • BILAG Total Score—Change from Baseline to LOV
(§6) Flares Analysis: • Time to medicinal flare • Time to new BILAG A or at least two new B's • Time to new BILAG A or at least two new B's (excluding persistent activity) • Steroid dose (PO)—Change from baseline to LOV • PGA—Physician's Global Assessment

[4] = test system: mice afflicted with spontaneous or experimental SLE; conditions: mouse, in vivo; cited from earlier work
SLE patients [5] = conditions: cited from earlier work; for incidence of adverse events (AEs): placebo 75%
SLE patients [6] = conditions: in vivo
Description: as §1, §2, §3, §4, §5, §6

CC[C@H](C)[C@H](NC(=O)[C@H](Cc1c[nH]c2ccccc12)NC(=O)[C@H](CO)NC(=O)[C@H](Cc1c[nH]c2ccccc12)NC(=O)[C@H](Cc1ccc(O)cc1)NC(=O)[C@H](Cc1ccc(O)cc1)NC(=O)CN)C(=O)C[C@@H](CCCNC(=N)N)C(=O)N[C@@H](CCC(N)=O)C(=O)N1CCC[C@H]1C(=O)N1CCC[C@H]1C(=O)NCC(=O)N[C@@H](CCCCN)C(=O)NCC(=O)N[C@@H](CCC(=O)O)C(=O)N[C@@H](CCC(=O)O)C(=O)N[C@@H](Cc1c[nH]c2ccccc12)C(=O)N[C@H](C(=O)NCC(=O)O)[C@@H](C)CC (stereo in doubt) [Edratide, H-Gly-Tyr-Tyr-Trp-Ser-Trp-Ile-Arg-Gln-Pro-Pro-Gly-Lys-Gly-Glu-Glu-Trp-Ile-Gly-OH]
subjects with increase in total SLEDAI-2K score of 0-3 points (SLE patients [1]; 0.5 mg group): Two | subjects with increase in total SLEDAI-2K score of 0-3 points (SLE patients [1]; 2.5 mg group): 2 subjects | overall incidence of AEs between all treatment groups (SLE patients [1]; 0.5, 1 or 2.5 mg sc twice weekly for 4 weeks vs placebo): no prominent difference | severity of injection site reactions (SLE patients [1]; all injection site reactions, majority resolved on day of injection): mild | subjects reporting AEs during 8-week follow-up period (off-drug) (SLE patients [1]; all treatment groups): Approximately 50% | adjusted mean SLEDAI (AMS) score change, baseline to termination visit (SLE patients [1]; all treatment groups, decreased (improved)): −0.1 to −1.5 points | trend in mean group total BILAG score (SLE patients [1]; any treatment group): No trend | SAE throughout the study (SLE patients [1]; in vivo): No SAE was reported | incidence of AEs during 8-week follow-up period (off-drug), active groups vs placebo (SLE patients [1]; in vivo): no prominent difference | proliferative response of PBL of SLE patients to the human anti-DNA 16/6Id mAB [2]: inhibit the proliferative response | Serious Adverse Events (SAEs), number of subjects (SLE patients [3]; 0.5 mg): 6 subjects | change in SF-36 mental score compared to placebo (SLE patients [3]; 0.5 mg): slightly better | change in SF-36 physical score compared to placebo (SLE patients [3]; 0.5 mg): opposite trend | early withdrawal due to AE, number of subjects (SLE patients [3]; 0.5 mg): 5 subjects | post hoc analysis on BILAG responders, system improved (SLE patients [3]; 0.5 mg): improvement mainly in the cutaneous system | subjects who prematurely terminated the study (SLE patients [3]; 0.5 mg (84 randomized)): Thirteen | deaths during the study (SLE patients [3]; 0.5 mg group): One | relation of death to study drug as classified by investigators (SLE patients [3]; 0.5 mg group, most probably septic shock): not related to the study drug | AE incidence (SLE patients [3]; 0.5 mg weekly): 82.1% | BILAG substantial responders (SLE patients [3]; 0.5 mg, ITT, LOV vs baseline, placebo 22%, p=0.03): 36% | subjects with medicinal flare (SLE patients [3]; 0.5 mg, ITT, post hoc, placebo 29%, p=0.039): 17% | BILAG substantial response odds ratio (OR) vs placebo (SLE patients [3]; 0.5 mg, ITT, p=0.03): 2.09 | medicinal flare OR vs placebo (SLE patients [3]; 0.5 mg, ITT, p=0.039): 0.43 | BILAG substantial responders (SLE patients [3]; 0.5 mg, no steroids at baseline, placebo 13%, p=0.05): 54% | early withdrawal due to AE (SLE patients [3]; 0.5 mg): 6.0% | Serious Adverse Events (SAEs) incidence (SLE patients [3]; 0.5 mg, placebo 10.3%): 7.1% | Serious Adverse Events (SAEs), number of subjects (SLE patients [3]; 1.0 mg): 10 subjects | early withdrawal due to AE, number of subjects (SLE patients [3]; 1.0 mg): 3 subjects | subjects who prematurely terminated the study (SLE patients [3]; 1.0 mg (87 randomized)): 13 subjects | subjects with zoster (SLE patients [3]; 1 mg group): 2 subjects | AE incidence (SLE patients [3]; 1 mg weekly): 77% | proportion of BILAG substantial responders compared to placebo (SLE patients [3]; 1 mg, lesser extent than 0.5 mg): trend toward increasing the proportion of substantial responders | BILAG substantial response OR vs placebo (SLE patients [3]; 1 mg, p=0.07 without correction for multiple comparison): 1.85 | early withdrawal due to AE (SLE patients [3]; 1.0 mg): 3.4% | Serious Adverse Events (SAEs) incidence (SLE patients [3]; 1.0 mg, placebo 10.3%): 11.5% | Serious Adverse Events (SAEs), number of subjects (SLE patients [3]; 2.5 mg): 8 subjects | early withdrawal due to AE, number of subjects (SLE patients [3]; 2.5 mg): 3 subjects | subjects who prematurely terminated the study (SLE patients [3]; 2.5 mg (82 randomized)): 11 subjects | AE incidence (SLE patients [3]; 2.5 mg weekly): 75.6% | early withdrawal due to AE (SLE patients [3]; 2.5 mg): 3.7% | Serious Adverse Events (SAEs) incidence (SLE patients [3]; 2.5 mg, placebo 10.3%): 9.8% | cSRI positive responders (SLE patients [3]; ITT (FIG. 4), placebo 20%, p=0.058): 34% | safety signal from AEs analysis and additional safety data (SLE patients [3]; all Edratide doses, no clear dose response): no significant safety signal | co-primary endpoints (change in SLEDAI 2K score baseline to LOV; AMS), active groups vs placebo (SLE patients [3]; any of the active treatment groups): no differences | SF-36 mental or physical scores, differences between treatment groups (SLE patients [3]; in vivo): No clinically or statistically significant differences | cumulative change in steroid dose throughout the study, differences between treatment groups (SLE patients [3]; in vivo): No clinically or statistically significant differences | early terminations due to AEs, Edratide vs placebo (SLE patients [3]; in vivo): more often | SAE incidence (SLE patients [3]; pooled Edratide group, placebo 10.3%): 9.5% | BILAG substantial response OR vs placebo (SLE patients [3]; prednisolone dose <20 mg at baseline, p=0.007): 2.75 | BILAG substantial responders (SLE patients [3]; prednisolone dose <20 mg at baseline, placebo 19%, p=0.007 (FIG. 2B)): 40% | mean reduction from baseline SLEDAI-2K score (SLE patients [3]; regardless of treatment): about 35% | BILAG substantial responders (SLE patients [3]; seropositive patients (anti-DNA>30 IU), placebo 26% (FIG. 2C)): 46% | BILAG non-responders (SLE patients [3]; seropositive patients (anti-DNA>30 IU), placebo 68%, p=0.05): 42% | disease manifestations of mice afflicted with spontaneous or experimental SLE [4]: ameliorate disease manifestations | increase of total SLEDAI-2K score in one subject (SLE patients [5]; 0.5 mg group, Week 4 after dosing, not confirmed as lupus flare): 2 to 10 points | change of total SLEDAI-2K score (SLE patients [5]; any subject during the study, except one subject in the 0.5 mg group): No noteworthy change | incidence of adverse events (AEs) (SLE patients [5]; single sc injection 0.5 mg, % of the subjects): 33% | incidence of adverse events (AEs) (SLE patients [5]; single sc injection 1 mg): 67% | incidence of adverse events (AEs) (SLE patients [5]; single sc injection 2.5 mg): 80% | subjects with herpes simplex (SLE patients [6]): 8 subjects | subjects with herpes viral infections (SLE patients [6]): 11 subjects | subjects with herpes zoster (SLE patients [6]): 3 subjects
